Test results as given in the supplement of paper PMC10307832.

Columns and labels:
Assay in all cases: relative viability (nuclei count vs DMSO), 5 days (fraction); higher = more cells survive
[1] = compound: C(C(=O)C(=O)O)Br [Bromopyruvate] + N=C(N)NC(=N)NCCc1ccccc1 [Phenformin] (partner 250 µM)
How it was run: (§1)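 Nuclei were stained with Hoechst during a one-step fixation (final 0.05% Triton X-100, 1% formaldehyde, 1 ug/ml Hoechst) carried out 5 days after dosing, then counted on 4× images. The cells, lung cancer lines in 1536-well plates, had been dosed by pin tool the day after seeding with one drug alone or a fixed anchor-drug dose plus five library-drug doses (not always all listed) in √10 steps. Relative viability is the nuclei count in treated wells divided by that in vehicle wells, and each value is the median of duplicate plates.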

[2] = compound: CC(O)(CS(=O)(=O)c1ccc(F)cc1)C(=O)Nc1ccc(C#N)c(C(F)(F)F)c1 [Bicalutamide] + CCNC(=O)c1noc(-c2cc(C(C)C)c(O)cc2O)c1-c1ccc(CN2CCOCC2)cc1 [Luminespib] (partner 0.01 µM)
How it was run: as §1

[3] = compound: CC(O)(CS(=O)(=O)c1ccc(F)cc1)C(=O)Nc1ccc(C#N)c(C(F)(F)F)c1 [Bicalutamide] + Cc1nc(NC(=O)N2CCC[C@H]2C(N)=O)sc1-c1ccnc(C(C)(C)C(F)(F)F)c1 [Alpelisib] (partner 2 µM)
How it was run: as §1

[4] = compound: C(C(=O)C(=O)O)Br [Bromopyruvate] + CC1(C)CCC(c2ccc(Cl)cc2)=C(CN2CCN(c3ccc(C(=O)NS(=O)(=O)c4ccc(N[C@H](CCN5CCOCC5)CSc5ccccc5)c(S(=O)(=O)C(F)(F)F)c4)cc3)CC2)C1 [Navitoclax] (partner 0.5 µM)
How it was run: as §1

With SW 1573 the relative viability ([1]; first compound 1 µM) was 0.387, the relative viability ([1]; first compound 3.162 µM) was 0.446 and the relative viability ([1]; first compound 10 µM) was 0.385. The relative viability ([1]; first compound 31.62 µM) was 0.34, the relative viability ([1]; first compound 100 µM) was 0.0639 and the relative viability ([2]; first compound 0.08 µM) was 0.506. The relative viability ([2]; first compound 0.253 µM) was 0.213, the relative viability ([2]; first compound 0.8 µM) was 0.209 and the relative viability ([2]; first compound 2.53 µM) was 0.181. The relative viability ([3]; first compound 0.08 µM) was 0.678, the relative viability ([3]; first compound 0.253 µM) was 0.639 and the relative viability ([3]; first compound 0.8 µM) was 0.831. The relative viability ([3]; first compound 2.53 µM) was 0.689, the relative viability ([4]; first compound 1 µM) was 0.927 and the relative viability ([4]; first compound 3.162 µM) was 1.17. It also gave a relative viability ([4]; first compound 10 µM) of 1.02, a relative viability ([4]; first compound 31.62 µM) of 1.11 and a relative viability ([4]; first compound 100 µM) of 0.487.
